# PMC8950868, “Identifying Human PTP1B Enzyme Inhibitors from Marine Natural Products: Perspectives for Developing of Novel Insulin-Mimetic Drugs” (Pharmaceuticals, 2022)
# “Also recorded” adds a separate entry of the source.
# Legend:
# C2C12 cells [1] = experiment: Insulin signalling pathway analysis (western blot of pIR and pAkt); type: cell-based, murine; details: for Effect on insulin signalling pathway: differentiated C2C12 cells
# Description: C2C12 cells were plated on P35 dishes, grown until 80% confluence and then incubated in the presence of differentiation medium (DMEM-high glucose (4500 mg/L) supplemented with 2% Horse serum (HS, Euroclone), 2 mM glutamine, 100 U/mL penicillin, and 100 μg/mL streptomycin) for 4 days. After this time, cell plates were washed with PBS and cells stimulated with 10 nM insulin, compound 3 or insulin-compound 3 combination for 30 min. After cell plates were washed with cold PBS solution and lysed using 1X Leammli sample buffer. Samples were store at 4 °C for 15 min and then protein solutions were collected and boiled for 5 min. Proteins were analysed by SDS-PAGE and then transferred on a PVDF membrane by western blot. Phosphorylation status of insulin receptor and the kinase Akt was evaluated using specific antibodies (pIR β subunit, Y1162/1163 (sc-25103-R) and β-actin, clone C-4 (sc-47778) were from Santa Cruz Biotechnology (Santa Cruz, CA, USA); IR β subunit, clone CT-3 (MABS65) was from Merck-Millipore (Burlington, MA, USA). Akt (9272S) and p-Akt (9271S) antibodies were from Cell Signalling Technology (Danvers, MA, USA). Secondary antibodies were from Santa Cruz Biotechnology (Santa Cruz, CA, USA). Detection was performed using Clarity western ECL substrates (Bio-Rad Laboratories, Inc.).
# Figure 12 Effect of compound 3 on insulin signalling pathway. C2C12 cells were incubated with compound 3 (20 µM final concentration) for 30 min, in the presence or not of insulin (10 nM). After that, cells were lysed, and cellular extracts were analysed to evaluate the phosphorylation status of IR and Akt. (A), western blot image; (B,C), quantitation of western blot carried out using Kodak MI software. Data were normalized respect to control sample. All tests were carried out in triplicate. Ctr: control experiment; Ins: cells treated with 10 nM insulin; 3: cells treated with compound 3 (20 µM); 3 + Ins, cells treated with insulin and compound 3. Statistical analysis was carried out using one way ANOVA followed by Tukey’s HSD test for pairwise comparisons. * p < 0.05.
# human recombinant AR = molecular target: T1, human recombinant AR (Homo sapiens, UniProt P15121); experiment: AR enzymatic assay (NADPH oxidation, L-idose substrate); type: biochemical; details: for remaining activity at 71 µM: 71 µM (maximal concentration used), read-out: % residual activity of human AR
# T1 construct: made in house
# Description: The human recombinant AR, purified to electrophoretic homogeneity as described, was used as target enzyme. AR activity was determined at 37 °C as previously described by evaluating the decrease in absorbance at 340 nm linked to NADPH oxidation using a Biochrom Libra S60 spectrophotometer. The standard assay mixture contained 0.25 M sodium phosphate buffer pH 6.8, 0.18 mM NADPH, 0.42 M ammonium sulfate, 0.5 mM EDTA and 4.7 mM D,L-glyceraldehyde. One unit of enzyme activity is the amount that catalyses the conversion of 1 µmol of substrate/min in the above assay conditions. For AR inhibition studies, 0.8 mM L-idose was used as substrate in the conditions described above, in the presence of 10 mU of enzyme and of a final concentration of DMSO of 0.7% (v/v).
# C2C12 cells [2] = experiment: Glucose uptake assay (2-NBDG, flow cytometry); type: cell-based, murine; details: 20 µM compound alone, 30 min, then 2-NBDG 3 h
# Description: To evaluate glucose uptake, C2C12 cells were grown until 80% confluence and then incubated in starvation medium for 24 h. After this time, cells were stimulated with 10 nM insulin (Humalog Lispro, Eli Lilly), 20 µM compound 3 or 3-insulin combination for 30 min and then incubated in the presence of 40 µM of 2-NBDG (Invitrogen) for 3 h. Then, cells were washed with PBS, tripsinized, pelleted by centrifugation (1000× g for 5 min), then suspended in 500 µL of PBS. The amount of 2-NBDG uploaded by cells was determined analysing cells by using a flow cytometer apparatus (FACSCanto II, BD Biosciences, San Jose, CA, USA). For each sample 1 × 10^4 events were acquired. Data obtained were then analysed with FlowJo software. Cells autofluorescence values were determined before sample analysis and subtracted to each sample.
# Figure 13 Glucose uptake assay. C2C12 cells were treated with 10 nM insulin, 20 µM compound 3 or 3-insulin combination and then incubated in the presence of 2-NBDG for 3 h. After that, the glucose uptake was analysed by flow cytometry analysis. Each test was carried out in quadruplicate. For each test, 10,000 events at least were analysed. (A), quantification of the mean fluorescence values of C2C12 cells. Data represents the mean value ± SD (n = 4). […] (B), representative cell fluorescence distribution obtained by analysing data with the FlowJo software. […]
# GST–PTP1B fusion protein = system: GST–PTP1B fusion protein; parameters: method as in PMID 27064611; details: different pH value, read-out: IC50 on PTP1B previously determined; cited from earlier work
# [3] = 20 µM compound + 10 nM insulin, versus insulin alone
# [4] = 20 µM compound alone, 30 min, versus control cells
Structure (SMILES),Effect on insulin signalling pathway (C2C12 cells [1]),remaining activity at 71 µM (human recombinant AR) [%],Glucose uptake (2-NBDG) (C2C12 cells [2]),Phosphorylation level of Akt (C2C12 cells [1]; [3]),Phosphorylation level of insulin receptor (IR) (C2C12 cells [1]; [3]),Phosphorylation level of Akt (C2C12 cells [1]; [4]),Phosphorylation level of insulin receptor (IR) (C2C12 cells [1]; [4]),AR inhibition (in words) (human recombinant AR),IC50 (GST–PTP1B fusion protein) [µM]
CCCCC[C@@H](OP(=O)(O)O)[C@@H](O)CC[C@H](CCCC)OC(C)=O (relative stereo) [Compound 8a],did not improve the insulin signalling pathway; also recorded: completely inactive,87 ± 2,–,–,–,–,–,–,–
CCCCCCCCCCCCCCC(OP(=O)(O)O)C(O)CCCO (centres unmarked) [Compound 3],acts as an insulin-mimetic agent; also recorded: evident insulin-mimetic activity,82 ± 3,incorporated more glucose than insulin-stimulated C2C12 cells,not statistically different,not statistically different,increased with respect to control cells,increased with respect to control cells,ineffective,24 ± 7
